Experimental data: paper PMC6600574 (Molecules, 2019)
Where two headings read alike, the source gives them in different places.

What was measured:
[1] = test system: peripheral blood mononuclear cells (PBMC); assay: Cellular antiproliferative activity (PrestoBlue); assay type: cell-based, human; settings: 48 h, read-out: Peripheral Blood Mononuclear Cell (PBMC) IC50
Protocol: (2012) was performed. PBMC isolation and testing was approved by the Ethics Committee of the Department of Natural and Agricultural Sciences, University of Pretoria, Pretoria (Doc nr: EC120411-046; 17.05.2012). Briefly, peripheral blood mononuclear cells were isolated from blood that was freshly donated on the same day at the Student Clinic at the University of Pretoria. Mononuclear cells were isolated by centrifugation over Ficoll-Hypaque, a density gradient solution, with a density gradient of 1.07 g/mL. A layer of fresh heparinized venous blood was layered on the Ficoll-Hypaque at a ratio of 1:1 with supplemented RPMI 1640 media and then subjected to centrifugation at 3000 rpm for 30 min. Through centrifugation, the whole blood sample was separated into its different layers. […] The cells were counted and seeded in 96-well plates with a cell density of 10,000 cells/mL. The following formula was used to adjust the cell concentrations (Equation 1): (1) Concentration of the cells=Cells counted/number of blocks counted×10000.
The HepG2 cell line was seeded with a concentration of 1 × 10^5 cells/well. […] The absorbance was read at 490 nm with a reference wavelength of 690 nm using a BIO-TEK Power-Wave XS multiwell plate reader. The assay was performed in triplicate, and the mean IC50 values were calculated.

[2] = In vitro metabolism with human liver microsomes or cytosolic proteins and cofactors (UHPLC-QTOF-MS); assay type: in vitro ADME; settings: for Level of verbascoside during incubation: 10 µM
Protocol: From the incubation mixture, 450 µL acetonitrile was added to 150 µL of the samples to stop the reaction at time points of 0, 10, 20, 40, and 60 min. The CYP incubation mixture contained 20% NADPH regenerating system, whereas the glucuronidation incubation mixture contained 0.5 mM UDP-glucuronic acid with 5 mM MgCl2. The sulfonation incubation mixture contained 10 µM PAPS, […], and 500 µg cytosolic protein instead of microsomes, and the methylation incubation mixture contained 0.5 mM S-adenosylmethionine, 5 mM MgCl2, and 500 µg cytosolic protein instead of microsomes. […] The hydrolysis reaction was studied with an incubation mixture that contained 400 µg microsomal protein, or 500 µg cytosolic proteins, and 5 mM MgCl2. A sample with the absence of any enzyme was considered as the blank sample. After stopping the reactions, the samples were centrifuged for 20 min at 10,000× g and stored at −80 °C for analysis by the UHPLC-QTOF-MS system (Agilent Technologies, Waldbronn, Karlsruhe, Germany), which consisted of a 1290 LC system, a Jetstream ESI source, and a 6540 UHD accurate mass quadrupole time-of-flight (QTOF) mass spectrometry. The sample tray was kept at 4 °C during these analyses. […] Two microliters of sample were injected onto a column (Zorbax Eclipse XDB-C8, 2.1 × 100mm, 1.8 µm, Agilent Technologies, Palo Alto, CA, USA) that was kept at 50 °C. Mobile phases, delivered at 0.4 mL/min, consisted of water (eluent A) and methanol (eluent B), both containing 0.1% (v/v) of formic acid. The gradient employed was as follows: 2%→100% B (0–10 min); 100% B (10–14.5 min); 100%→2% B (14.5–14.51 min); and 2% B (14.51–16.50 min).
A Jetstream ESI source, operated in negative ionization mode, used the following conditions: drying gas temperature 325 °C and a flow of 10 L/min, sheath gas temperature 350 °C and a flow of 11 L/min, nebulizer pressure 45 psi, capillary voltage 3500 V, nozzle voltage 1000 V, fragmentary voltage 100 V, and skimmer 45 V. Nitrogen was used as the instrument gas. For data acquisition, a 2 GHz extended dynamic range mode was used from m/z 20 to m/z 1600. Data were collected in the centroid mode at an acquisition rate of 1.67 spectra/s with an abundance threshold of 150. The TOF was calibrated on a daily basis and subsequently operated at a high accuracy (<2 ppm). Continuous mass axis calibration was performed by monitoring two reference ions from an infusion solution throughout the runs. The reference ions were m/z 112.985587 and m/z 966.000725. Identification of the metabolites found in the treatments was based on accurate mass and isotope information (i.e., ratios, abundances, and spacing). The software for the identification of metabolites used was MassHunter Metabolite ID B.04.00 (Agilent Technologies, Santa Clara, CA, USA).

## C[C@@H]1O[C@@H](O[C@@H]2[C@@H](O)[C@H](OCCc3ccc(O)c(O)c3)O[C@H](CO)[C@H]2OC(=O)/C=C/c2ccc(O)c(O)c2)[C@H](O)[C@H](O)[C@H]1O [Verbascoside]
[1]
  IC50: 170 ± 3.73 µM
[1]; Homo sapiens, PBMC
  IC50: > 100 µM
[2]; human liver cytosolic protein, PAPS, up to 60 min
  Level of verbascoside during incubation: decreased
[2]; human liver cytosolic protein, S-adenosylmethionine, up to 60 min
  Level of verbascoside during incubation: decreased
[2]; human liver microsomes, NADPH oxidation incubation
  Level of verbascoside during incubation: no decrease
[2]; human liver microsomes, UDP-glucuronic acid, up to 60 min
  Level of verbascoside during incubation: decreased
[2]; hydrolysis incubation, microsomal or cytosolic protein without cofactor
  Level of verbascoside during incubation: no decrease
[2]; PAPS incubation, levels increased up to 20 min
  Metabolites formed: three different sulphate conjugates
[2]; S-adenosylmethionine incubation, levels increased up to 60 min
  Metabolites formed: five different methylated conjugates
[2]; UDP-glucuronic acid incubation with human liver microsomes
  Metabolites formed: No glucuronide conjugate
